Assay results from US6936266B2, “Desquamation/epidermal renewal of the skin and/or combating skin aging” (L'Oreal, priority 1998, dated 2005).

Test system: differentiated human keratinocytes
Test: in vitro screening of an active agent on desquamation (release of corneocytes, cellular detachment index by flow cytometry)
Format: cell-based
Details: for % of activity relative to the control (cellular detachment index, difference between T60 and T0): compounds at 5 × 10^−5M, 60 minutes after addition, control = identical culture in the absence of compound
Procedure: This test of in vitro screening of an active agent on desquamation was carried out on differentiated human keratinocytes. The principle of the test was based on the fact that desquamation induces the release of corneocytes. The desquamating power of the product tested will be proportionately greater the larger the number of corneocytes released.
The test procedure was as follows: starting with human skin biopsies, the keratinocytes obtained by separation of the epidermis were dissociated by enzymatic action with trypsin and were cultured at a concentration of 2×10^5 cells/ml. Growth and differentiation of the keratinocytes were obtained by culturing for 10 to 20 days in a specific medium. Next, after removing the culture medium, the activity of the test product was evaluated. To do this, two samples were taken at T0 and T60, i.e., just before adding the product and 60 minutes after this addition. The samples thus taken were analyzed with a flow cytometer in order to count the corneocyte population. The flow cytometer made it possible to distinguish the corneocyte and keratinocyte populations by treatment with acridine orange, which is specific for cellular DNA.
The cellular detachment index was determined by the difference between T60 and T0.
The test was carried out with cinnamic acid at a concentration of 5×10^−5M.
The results are given as a % of activity relative to the control consisting of an identical culture in the absence of compound.

Row | Compound | activity on the cellular detachment (cinnamic acid at 5×10^−5M) | % of activity relative to the control (cellular detachment index, difference between T60 and T0)
1 | O=C(O)C=Cc1ccccc1 [Cinnamic acid] | high | 59.2%
2 | CCCCCCCC(=O)c1ccc(O)c(C(=O)O)c1 [Reference, 2-hydroxy-5-octanoylbenzoic acid, reference compound] |  | 96.6%
